From patent publication US4999352A, “1-(1-aryl-2-hydroxyethyl)-imidazoles and salts thereof, medicaments containing these compounds, and the use thereof” (Hoechst Aktiengesellschaft, priority 1987, dated 1991) come the findings set out here.

SMILES strings stand for the structures.

This test concerns tetrabenazine-induced ptosis. In words: Test for influence on tetrabenazine-induced ptosis in mice. Format: in vivo, mice (male, SPF-71, KF:NMRI). To be noted: Mus musculus, po, 0.5 h, p.o., tetrabenazine 40 mg/kg i.p. 30 minutes after test substance, ptosis scored 30 minutes later, 50% of control ptosis, 95% confidence limit in parentheses. The procedure: Test for influence on tetrabenazine-induced ptosis
Male mice (SPF-71, KF:NMRI) weighing 18-22 g were allotted at random to treatment groups of 6 animals. The test substances were suspended in 1% strength methylhydroxyethylcellulose (MH)/water and administered orally at 10 ml/kg of body weight. A control group was given the solvent (1% strength MH), and the standard group was given 10 mg/kg p.o. of nomifensine (in 1% strength MH). The tetrabenazine solution used was prepared from methanesulfonate (.congruent.76.8% of base), and an amount corresponding to 40 mg/kg of tetrabenazine base was administered intraperitoneally 30 minutes after the test substances. The ptosis was assessed according to the following scale 30 minutes after administration of tetrabenazine: […]
The ptosis scores were cumulated and the result of the groups related to the maximum score achievable (6×.varies.=100%). By means of linear regression, the ED50 (mg/kg) was determined as the dose at which the degree of ptosis is 50% of the value determined in the control group.

For `C=CCC(C)(C)C(O)C(c1ccc(-c2ccccc2)cc1)n1ccnc1` (centres unmarked) [Example 13], the 50% effective dose (ED50) was 1.3 mg/kg.
In the case of `CN1Cc2c(N)cccc2C(c2ccccc2)C1` (centres unmarked) [nomifensine, reference compound] it was 1.2 mg/kg.
Take `C=CCC1(C(O)C(c2cccc(Cl)c2)n2ccnc2)CCCCC1` (centres unmarked) [Example 1, 1-(1-Allyl-1-cyclohexyl)-2-(3-chlorophenyl)-2-(1-imidazolyl)-ethanol]: the median effective dose (ED50) was 3.9 mg/kg.
As for `C=CCC(C)(C)C(O)C(c1cccc(Cl)c1)n1ccnc1` (centres unmarked) [Example 2, 1-(3Chlorophenyl)-3,3-dimethyl-1-(1-imidazolyl)-5-hexen-2-ol], the figure is 2 mg/kg; as for `CCCC(C)(C)C(O)C(c1ccc(-c2ccccc2)cc1)n1ccnc1` (centres unmarked) [Example 26, 1-(4-Diphenyl)-3,3-dimethyl-1-(1-imidazolyl)-2-hexanol], 1.2 mg/kg.

One may read the ED50 as the dose that gives a 50% effect, or the effect in half of the subjects.
